target: T1, human FXR (NR1H4) (Homo sapiens, UniProt Q96RI1); experiment: Human FXR (NR1H4) Assay (Gal4 promoter driven luciferase reporter, Indigo Bioscience kit IB00601); type: cell-based; settings: FXR agonistic potency; CHO reporter cells expressing human NR1H4; 22 hours incubation; luciferase readout
T1 sequence (Q96RI1 1-486): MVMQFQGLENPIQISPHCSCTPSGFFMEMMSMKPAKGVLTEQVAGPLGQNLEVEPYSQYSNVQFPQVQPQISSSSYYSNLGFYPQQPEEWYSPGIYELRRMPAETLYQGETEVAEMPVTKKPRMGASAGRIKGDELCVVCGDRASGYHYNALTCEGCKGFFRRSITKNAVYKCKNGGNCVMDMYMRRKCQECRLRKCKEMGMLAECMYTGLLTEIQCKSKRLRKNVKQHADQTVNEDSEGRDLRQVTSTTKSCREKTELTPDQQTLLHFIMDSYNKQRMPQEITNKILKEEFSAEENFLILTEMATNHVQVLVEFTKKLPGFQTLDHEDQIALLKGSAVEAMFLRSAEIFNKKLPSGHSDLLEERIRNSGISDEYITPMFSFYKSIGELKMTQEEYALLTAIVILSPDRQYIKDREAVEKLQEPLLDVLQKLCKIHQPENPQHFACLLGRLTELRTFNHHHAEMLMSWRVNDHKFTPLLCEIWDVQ
Text: Determination of a ligand mediated Gal4 promoter driven transactivation to quantify ligand binding mediated activation of FXR. FXR Reporter Assay kit purchased from Indigo Bioscience (Catalogue number: IB00601) to determine the potency and efficacy of compound developed by Enanta that can induce FXR activation. The principle application of this reporter assay system is to quantify functional activity of human FXR. The assay utilizes non-human mammalian cells, CHO (Chinese hamster ovary) cells engineered to express human NR1H4 protein (referred to as FXR). Reporter cells also incorporate the cDNA encoding beetle luciferase which catalyzes the substrates and yields photon emission. Luminescence intensity of the reaction is quantified using a plate-reading luminometer, Envision. Reporter Cells include the luciferase reporter gene functionally linked to an FXR responsive promoter. Thus, quantifying changes in luciferase expression in the treated reporter cells provides a sensitive surrogate measure of the changes in FXR activity. […] The assay is according to the manufacturer's instructions. In brief, the assay was performed in white, 96 well plates using final volume of 100 uL containing cells with different doses of compounds. Retrieve Reporter Cells from −80° C. storage. Perform a rapid thaw of the frozen cells by transferring a 10 ml volume of 37° C. cell recovery medium into the tube of frozen cells. Recap the tube of Reporter Cells and immediately place it in a 37° C. water bath for 5-10 minutes. Retrieve the tube of Reporter Cell Suspension from the water bath. Sanitize the outside surface of the tube with a 70% alcohol swab, and then transfer it into the cell culture hood. Dispense 90 μl of cell suspension into each well of the 96-well Assay Plate. Transfer the plate into 37° C. incubator, allowing the cells adherent to the bottom of the well. Dilute compounds in Dilution Plate (DP), and administrate to cells at Assay Plate (AP). DMSO content of the samples was kept at 0.2%. Cells were incubated for additional 22 hours before luciferase activities were measured. Thirty minutes before intending to quantify FXR activity, remove Detection Substrate and Detection Buffer from the refrigerator and place them in a low-light area so that they may equilibrate to room temperature. Remove the plate's lid and discard all media contents by ejecting it into an appropriate waste container. Gently tap the inverted plate onto a clean absorbent paper towel to remove residual droplets. Cells will remain tightly adhered to well bottoms. Add 100 μl of luciferase detection reagent to each well of the assay plate. Allow the assay plate to rest at room temperature for at least 5 minutes following the addition of LDR. Set the instrument (Envision) to perform a single 5 second “plate shake” prior to reading the first assay well. Read time may be 0.5 second (500 mSec) per well.

| SMILES | EC50 |
| --- | --- |
| CC[C@H]1[C@@H](O)[C@@H]2[C@H](CC[C@]3(C)[C@@H]([C@H](C)COC(=O)NS(=O)(=O)c4ccc(OC5(C)CCCC5)cc4)CC[C@@H]23)[C@@]2(C)CC[C@@H](O)C[C@@H]12 [Example 10] | < 1 nM |
| CC[C@H]1[C@@H](O)[C@@H]2[C@H](CC[C@]3(C)[C@@H]([C@H](C)COC(=O)NS(=O)(=O)c4ccc5c(c4)CCC(C)(C)O5)CC[C@@H]23)[C@@]2(C)CC[C@H](O)C[C@@H]12 [Example 33] | < 1 nM |
| C[C@H](COC(=O)NS(=O)(=O)c1ccc(OC(C)(C)C)cc1)[C@H]1CC[C@H]2[C@@H]3[C@H](O)C[C@@H]4C[C@H](O)CC[C@]4(C)[C@H]3CC[C@]12C [Example 2] | 10 to 100 nM |
| CC[C@H]1[C@@H](O)[C@@H]2[C@H](CC[C@]3(C)[C@@H]([C@H](C)COC(=O)NS(=O)(=O)c4ccc(OC5CC5)cc4)CC[C@@H]23)[C@@]2(C)CC[C@@H](O)C[C@@H]12 [Example 7] | < 1 nM |
| CC[C@H]1[C@@H](O)[C@@H]2[C@H](CC[C@]3(C)[C@@H]([C@H](C)COC(=O)NS(=O)(=O)c4ccc(O[C@@H](C)CC)cc4)CC[C@@H]23)[C@@]2(C)CC[C@@H](O)C[C@@H]12 [Example 16] | < 1 nM |
| CC[C@H]1[C@@H](O)[C@@H]2[C@H](CC[C@]3(C)[C@@H]([C@H](C)COC(=O)NS(=O)(=O)c4ccc(OC(C)(C)C)cn4)CC[C@@H]23)[C@@]2(C)CC[C@@H](O)C[C@@H]12 [Example 22] | < 1 nM |
| CCCCOc1ccc(S(=O)(=O)NC(=O)OC[C@@H](C)[C@H]2CC[C@H]3[C@@H]4[C@H](O)[C@H](CC)[C@@H]5C[C@H](O)CC[C@]5(C)[C@H]4CC[C@]23C)cc1 [Example 21] | 1 to 10 nM |
| CC[C@H]1[C@@H](O)[C@@H]2[C@H](CC[C@]3(C)[C@@H]([C@H](C)COC(=O)NS(=O)(=O)c4ccc(OC5CCCCC5)cc4)CC[C@@H]23)[C@@]2(C)CC[C@@H](O)C[C@@H]12 [Example 11] | 1 to 10 nM |
| CCC(CC)Oc1ccc(S(=O)(=O)NC(=O)OC[C@@H](C)[C@H]2CC[C@H]3[C@@H]4[C@H](O)[C@H](CC)[C@@H]5C[C@H](O)CC[C@]5(C)[C@H]4CC[C@]23C)cc1 [Example 19] | 10 to 100 nM |
| CC[C@H]1[C@@H](O)[C@@H]2[C@H](CC[C@]3(C)[C@@H]([C@H](C)COC(=O)NS(=O)(=O)c4cnc(OC(C)C)nc4)CC[C@@H]23)[C@@]2(C)CC[C@@H](O)C[C@@H]12 [Example 28] | 10 to 100 nM |
| CC[C@H]1[C@@H](O)[C@@H]2[C@H](CC[C@]3(C)[C@@H]([C@H](C)COC(=O)NS(=O)(=O)c4ccc(OC(C)C)c(C)c4)CC[C@@H]23)[C@@]2(C)CC[C@@H](O)C[C@@H]12 [Example 13] | < 1 nM |
| CC[C@H]1[C@@H](O)[C@@H]2[C@H](CC[C@]3(C)[C@@H]([C@H](C)COC(=O)NS(=O)(=O)c4ccc5c(c4)CCC(C)(C)O5)CC[C@@H]23)[C@@]2(C)CC[C@@H](O)C[C@@H]12 [Example 5] | < 1 nM |
| CCOc1ccc(S(=O)(=O)NC(=O)OC[C@@H](C)[C@H]2CC[C@H]3[C@@H]4[C@H](O)[C@H](CC)[C@@H]5C[C@H](O)CC[C@]5(C)[C@H]4CC[C@]23C)cc1 [Example 14] | < 1 nM |
| CC[C@H]1[C@@H](O)[C@@H]2[C@H](CC[C@]3(C)[C@@H]([C@H](C)COC(=O)NS(=O)(=O)c4ccc5c(c4)CC(C)(C)O5)CC[C@@H]23)[C@@]2(C)CC[C@@H](O)C[C@@H]12 [Example 6] | < 1 nM |
| CC[C@H]1[C@@H](O)[C@@H]2[C@H](CC[C@]3(C)[C@@H]([C@H](C)COC(=O)NS(=O)(=O)c4ccc(OC)cc4)CC[C@@H]23)[C@@]2(C)CC[C@@H](O)C[C@@H]12 [Example 27] | 1 to 10 nM |
| CC[C@H]1[C@@H](O)[C@@H]2[C@H](CC[C@]3(C)[C@@H]([C@H](C)COC(=O)NS(=O)(=O)c4ccc(Oc5ccccc5)cc4)CC[C@@H]23)[C@@]2(C)CC[C@@H](O)C[C@@H]12 [Example 25] | > 100 nM |
| CC[C@H]1[C@@H](O)[C@@H]2[C@H](CC[C@]3(C)[C@@H]([C@H](C)COC(=O)NS(=O)(=O)c4ccc(OC(F)(F)C(F)(F)F)cc4)CC[C@@H]23)[C@@]2(C)CC[C@@H](O)C[C@@H]12 [Example 30] | 1 to 10 nM |
| CC[C@H]1[C@@H](O)[C@@H]2[C@H](CC[C@]3(C)[C@@H]([C@H](C)COC(=O)NS(=O)(=O)c4ccc(OC(F)(F)F)cc4)CC[C@@H]23)[C@@]2(C)CC[C@@H](O)C[C@@H]12 [Example 23] | > 100 nM |

— patent publication US10472386B2, “Bile acid derivatives as FXR agonists and methods of use thereof” (priority 2017, dated 2019)
